Results as given in patent US20230141101A1, “PDE4 INHIBITOR COMPOUND AND MEDICAL USE THEREOF” (Suzhou Longbotai Pharmaceuticals Co., Ltd., priority 2020, published 2023).

Tests used:
Type in all cases: biochemical
Conditions in all cases: 20 nM
PDE4D2 = PDE4D2 (Homo sapiens, UniProt Q08499); experiment: PDE4 inhibitory activity assay (FAM-cAMP enzymatic reaction), PDE4D2
How it was run: (§1)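 Human PDE4A1A, PDE4B1 or PDE4D2 preincubated with compound 15 min at room temperature, then FAM-cAMP substrate added; reaction 30 min at room temperature before stop solution and further 60 min. Fluorescence read on multilabel counter; IC50 fitted from inhibition rates.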

PDE4B1 = target: T1, PDE4B1 (Homo sapiens, UniProt Q07343); experiment: PDE4 inhibitory activity assay (FAM-cAMP enzymatic reaction), PDE4B1
T1 construct: purchased BPS 60041
T1 sequence (Q07343 whole entry): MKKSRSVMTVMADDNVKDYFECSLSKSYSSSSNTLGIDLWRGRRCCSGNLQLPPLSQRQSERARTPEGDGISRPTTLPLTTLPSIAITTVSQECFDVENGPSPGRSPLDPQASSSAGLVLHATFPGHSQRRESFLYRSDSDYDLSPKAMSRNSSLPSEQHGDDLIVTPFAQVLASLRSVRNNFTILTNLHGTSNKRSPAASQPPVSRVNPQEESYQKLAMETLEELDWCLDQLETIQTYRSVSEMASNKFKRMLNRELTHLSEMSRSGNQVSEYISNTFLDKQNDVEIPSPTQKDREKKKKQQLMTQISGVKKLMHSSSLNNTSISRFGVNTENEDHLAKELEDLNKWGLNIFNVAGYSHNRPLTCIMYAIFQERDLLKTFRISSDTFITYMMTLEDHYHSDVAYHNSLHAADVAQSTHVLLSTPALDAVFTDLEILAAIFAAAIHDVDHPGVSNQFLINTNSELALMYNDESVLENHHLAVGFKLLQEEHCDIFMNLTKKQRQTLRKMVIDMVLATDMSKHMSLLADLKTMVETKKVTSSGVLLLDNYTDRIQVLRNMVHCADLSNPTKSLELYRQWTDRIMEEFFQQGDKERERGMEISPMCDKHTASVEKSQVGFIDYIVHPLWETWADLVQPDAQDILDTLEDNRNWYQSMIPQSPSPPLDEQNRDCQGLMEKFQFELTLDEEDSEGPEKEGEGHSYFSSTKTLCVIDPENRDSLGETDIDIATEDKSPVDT
How it was run: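 Each isoform is incubated with test compound for 15 min at room temperature before FAM-cAMP substrate starts a 30-min reaction.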

PDE4A1A = target: T2, PDE4A1A (Homo sapiens, UniProt P27815); experiment: PDE4 inhibitory activity assay (FAM-cAMP enzymatic reaction), PDE4A1A
T2 construct: purchased BPS 60040
T2 sequence (P27815 1-647 isoform P27815-4): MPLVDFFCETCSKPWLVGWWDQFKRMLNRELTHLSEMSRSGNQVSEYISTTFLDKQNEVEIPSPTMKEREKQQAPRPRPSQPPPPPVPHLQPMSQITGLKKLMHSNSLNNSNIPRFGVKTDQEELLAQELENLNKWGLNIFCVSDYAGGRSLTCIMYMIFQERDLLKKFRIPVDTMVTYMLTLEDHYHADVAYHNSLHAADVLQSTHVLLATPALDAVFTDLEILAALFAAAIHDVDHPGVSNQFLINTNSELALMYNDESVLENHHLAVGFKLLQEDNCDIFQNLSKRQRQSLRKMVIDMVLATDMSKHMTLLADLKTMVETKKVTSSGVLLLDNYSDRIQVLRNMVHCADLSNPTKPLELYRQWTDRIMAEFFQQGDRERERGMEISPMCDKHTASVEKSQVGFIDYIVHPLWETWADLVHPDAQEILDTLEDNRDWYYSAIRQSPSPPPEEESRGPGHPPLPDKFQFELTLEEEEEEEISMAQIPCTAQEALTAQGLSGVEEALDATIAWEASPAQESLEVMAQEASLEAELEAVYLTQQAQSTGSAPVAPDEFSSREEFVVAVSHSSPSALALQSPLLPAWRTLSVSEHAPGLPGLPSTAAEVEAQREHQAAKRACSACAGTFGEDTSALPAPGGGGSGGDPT
How it was run: as §1

Chain of PDE4D2 (Q08499 303-809): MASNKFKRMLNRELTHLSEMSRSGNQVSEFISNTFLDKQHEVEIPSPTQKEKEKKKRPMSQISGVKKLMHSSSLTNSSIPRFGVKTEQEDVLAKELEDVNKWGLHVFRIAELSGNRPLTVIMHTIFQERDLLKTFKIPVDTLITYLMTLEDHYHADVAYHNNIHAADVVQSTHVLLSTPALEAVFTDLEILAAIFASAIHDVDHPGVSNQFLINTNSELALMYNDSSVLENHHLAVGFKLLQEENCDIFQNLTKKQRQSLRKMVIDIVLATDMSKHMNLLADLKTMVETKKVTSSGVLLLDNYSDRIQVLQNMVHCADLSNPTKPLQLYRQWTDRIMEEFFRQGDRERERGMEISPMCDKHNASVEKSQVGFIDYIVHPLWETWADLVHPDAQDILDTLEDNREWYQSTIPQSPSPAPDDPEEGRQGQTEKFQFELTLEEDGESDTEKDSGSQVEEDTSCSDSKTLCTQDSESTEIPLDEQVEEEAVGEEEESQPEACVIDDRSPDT

SMILES	PDE4 D2 inhibitory effect at 20 nM (PDE4D2)	PDE4 B1 inhibitory effect at 20 nM (PDE4B1)	PDE4 A1 inhibitory effect at 20 nM (PDE4A1A)
CCOc1nc([C@@H](CS(C)(=O)=O)n2c(=O)[nH]c3c(C)c(-c4ccc(F)cc4)cnc32)ccc1OC(F)F [Ex. 63, (S)-3-(1-(5-(difluoromethoxy)-6-ethoxypyridin-2-yl)-2-(methylsulfonyl)ethyl)-6-(4-fluorophenyl)-7-methyl-1H-imidazo[4,5-b]pyridin-2(3H)-one]	+	+	+
CCOc1nc([C@@H](CS(C)(=O)=O)n2c(=O)[nH]c3cc(-c4ccc(F)cc4)cnc32)ccc1OC [Ex. 78, (S)-3-(1-(6-ethoxy-5-methoxypyridin-2-yl)-2-(methylsulfonyl)ethyl)-6-(4-fluorophenyl)-1H-imidazo[4,5-b]pyridin-2(3H)-one]	+	+	+
CCOc1nc([C@@H](CS(C)(=O)=O)n2c(=O)n(CC(F)F)c3c(C)c(-c4ccccc4C)cnc32)ccc1OC(C)C [Ex. 72, (S)-1-(2,2-difluoroethyl)-3-(1-(6-ethoxy-5-isopropoxypyridin-2-yl)-2-(methylsulfonyl)ethyl)-7-methyl-6-(o-methylphenyl)-1H-imidazo[4,5-b]pyridin-2(3H)-one]	+	+	+
CCOc1nc([C@@H](CS(C)(=O)=O)n2c(=O)n(C)c3cc(-c4cc(F)ccc4C)cnc32)ccc1OC [Ex. 110, (S)-6-(5-fluoro-2-methylphenyl)-3-(1-(6-ethoxy-5-methoxypyridin-2-yl)-2-(methylsulfonyl)ethyl)-1-methyl-1H-imidazo[4,5-b]pyridin-2(3H)-one]	+	+	+
CCOc1nc([C@@H](CS(C)(=O)=O)n2c(=O)[nH]c3c(C)c(-c4cccc(C)c4C)cnc32)ccc1OC [Ex. 33, (S)-6-(2,3-dimethylphenyl)-3-(1-(6-ethoxy-5-methoxypyridin-2-yl)-2-(methylsulfonyl)ethyl)-7-methyl-1H-imidazo[4,5-b]pyridin-2(3H)-one]	+	+	+
CCOc1nc([C@H](CS(C)(=O)=O)n2c(=O)n(C)c3c(C)c(-c4ccccc4F)cnc32)ccc1OC [Ex. 22]	−	−	−
CCOc1nc([C@H](CS(C)(=O)=O)N2Cc3cccc(NC(=O)CC)c3C2=O)ccc1OC [Ex. 220, (R)—N-(2-(1-(6-ethoxy-5-methoxypyridin-2-yl)-2-(methylsulfonyl)ethyl)-3-oxoisoindolin-4-yl)propionamide]	−	−	−
CCOc1nc([C@@H](CS(C)(=O)=O)n2c(=O)n(C)c3cc(-c4cc(C)ccc4C)cnc32)ccc1OC [Ex. 102, (S)-6-(2,5-dimethylphenyl)-3-(1-(6-ethoxy-5-methoxypyridin-2-yl)-2-(methylsulfonyl)ethyl)-1-methyl-1H-imidazo[4,5-b]pyridin-2(3H)-one]	+	+	+
CCOc1nc([C@@H](CS(C)(=O)=O)n2c(=O)n(C)c3cc(-c4cc(F)ccc4OC)cnc32)ccc1OC [Ex. 118, (S)-6-(5-fluoro-2-methoxyphenyl)-3-(1-(6-ethoxy-5-methoxypyridin-2-yl)-2-(methylsulfonyl)ethyl)-1-methyl-1H-imidazo[4,5-b]pyridin-2(3H)-one]	+	+	+
CCOc1nc([C@@H](CS(C)(=O)=O)n2c(=O)n(CC(F)(F)F)c3c(C)c(-c4ccccc4F)cnc32)ccc1OC [Ex. 51, (S)-3-(1-(6-ethoxy-5-methoxypyridin-2-yl)-2-(methylsulfonyl)ethyl)-6-(2-fluorophenyl)-7-methyl-1-(2,2,2-trifluoroethyl)-1H-imidazo[4,5-b]pyridin-2(3H)-one]	+	+	+
CCOc1nc([C@@H](CS(C)(=O)=O)n2c(=O)n(C3CC3)c3cc(C(F)(F)F)ccc32)ccc1OC [Ex. 211, (S)-3-cyclopropyl-1-(1-(6-ethoxy-5-methoxypyridin-2-yl)-2-(methylsulfonyl)ethyl)-5-(trifluoromethyl)-1H-benzo[d]imidazol-2(3H)-one]	+	+	+
CCOc1nc([C@@H](CS(C)(=O)=O)n2c(=O)n(C)c3cc(-c4c(F)cccc4F)cnc32)ccc1OC [Ex. 89, (S)-6-(2,6-difluorophenyl)-3-(1-(6-ethoxy-5-methoxypyridin-2-yl)-2-(methylsulfonyl)ethyl)-1-methyl-1H-imidazo[4,5-b]pyridin-2(3H)-one]	+	+	+
CCOc1nc([C@@H](CS(C)(=O)=O)n2c(=O)[nH]c3cc(-c4c(F)cccc4F)cnc32)ccc1OC [Ex. 88, (S)-6-(2,6-difluorophenyl)-3-(1-(6-ethoxy-5-methoxypyridin-2-yl)-2-(methylsulfonyl)ethyl)-1H-imidazo[4,5-b]pyridin-2(3H)-one]	+	+	+
CCOc1nc([C@@H](CS(C)(=O)=O)n2c(=O)[nH]c3c(C)c(-c4cccc(F)c4C)cnc32)ccc1OC [Ex. 37, (S)-6-(3-fluoro-2-methylphenyl)-3-(1-(6-ethoxy-5-methoxypyridin-2-yl)-2-(methylsulfonyl)ethyl)-7-methyl-1H-imidazo[4,5-b]pyridin-2(3H)-one]	+	+	+
CCOc1nc([C@H](CS(C)(=O)=O)n2c(=O)n(CC)c3c(C)c(-c4ccccc4)cnc32)ccc1OC [Ex. 47, (R)-3-(1-(6-ethoxy-5-methoxypyridin-2-yl)-2-(methylsulfonyl)ethyl)-1-ethyl-7-methyl-6-phenyl-1H-imidazo[4,5-b]pyridin-2(3H)-one]	−	−	−
CCOc1nc([C@@H](CS(C)(=O)=O)n2c(=O)n(C)c3cc(-c4ccccc4OC)cnc32)ccc1OC [Ex. 84, (S)-3-(1-(6-ethoxy-5-methoxypyridin-2-yl)-2-(methylsulfonyl)ethyl)-6-(2-methoxyphenyl)-1-methyl-1H-imidazo[4,5-b]pyridin-2(3H)-one]	+	+	+
CCOc1nc([C@@H](CS(C)(=O)=O)n2c(=O)[nH]c3cc(-c4ccccc4OC)ccc32)ccc1OC [Ex. 143, (S)-1-(1-(6-ethoxy-5-methoxypyridin-2-yl)-2-(methylsulfonyl)ethyl)-5-(2-methoxyphenyl)-1H-benzo[d]imidazol-2(3H)-one]	+	+	+
